Key:
[1] = tested on: A3 enzymes; conditions: cited from earlier work
[2] = molecular target: hCDA (Homo sapiens, UniProt P32320); assay: Quantitative evaluation of hCDA inhibitors; type: biochemical
Sequence of hCDA (P32320 whole entry): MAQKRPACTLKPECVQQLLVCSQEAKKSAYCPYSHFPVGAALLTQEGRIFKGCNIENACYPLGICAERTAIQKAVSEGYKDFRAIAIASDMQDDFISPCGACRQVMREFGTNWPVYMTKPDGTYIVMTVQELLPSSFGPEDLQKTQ

O=C1NC(O)CCN1[C@@H]1O[C@H](CO)[C@@H](O)[C@H]1O (stereo partly drawn) [THU, tetrahydrouridine]
inhibition of A3 enzymes by free nucleosides [1]: did not inhibit

O=C1NCC=CCN1[C@H]1C[C@H](O)[C@@H](CO)O1 [dDiAzep, 8, 1,3-diazepin-2-one 2′-deoxyriboside]
Ki ([2]; hCDA 27 nM, dC substrate, pH 7.4, 25 °C, competitive inhibition assumed): 430 ± 80 nM | Km/Ki ([2]; hCDA, Km of dC over Ki of inhibitor): 512

Source: article PMC10282898 (Organic & Biomolecular Chemistry, 2023)
